From patent publication US20030073133A1, “Individualization of therapy with erectile dysfunction agents” (McGill University, priority 2001, published 2003)
Like-named read-outs stand apart in the source and are kept apart here. Marks after values point to notes of the source that are not given here.

Tests used:
1X-Ab = experiment: Competitive antigen ELISA, cross-reactivity of 1X-Ab; type: binding, rabbit; conditions: 0 = absence of inhibition or inhibition no higher than 40% at highest concentration tested (5 × 10^−3 M)
Method: (§1) Competitive Antigen Elisa
(§2) Buffers and water without additives are filtered through millipore filters and kept for 1 week. BSA, antibodies, Tween™ 20 and horse radish peroxidase conjugates are added to these buffers and water just prior to use. Urine samples are usually collected 4 hours after drinking a cup of coffee (instant or brewed with approximately 100 mg of caffeine per cup) and stored at −80° C. The urine samples are diluted 10 times with sodium phosphate buffer (620 mosm, pH 7.50) and are subsequently diluted with water to give concentrations of AAMU and 1X no higher than 3×10^−6 M in the ELISA. All the pipettings are done with an eight-channel pipette, except those of the antibody and sample solutions. Starting with the last well, 100 μL of a carbonate buffer (100 mM, pH 9.6) containing 2.5 μg mL-1 antibodies are added to each well. After 90 min. at room temperature, the wells are washed three times with 100 mL of TPB: isotonic sodium phosphate buffer (310 mosm, pH 7.50) containing 0.05% Tween™ 20.
(§3) After the initial wash, unoccupied sites are blocked by incubation for 90 min. at room temperature with 100 μL TBP containing 3% BSA. The wells are washed four times with 100 μL TPB. The washing is followed by additions of 50 μL of 12 mg mL^−1 AAMU-HRP or 1X-HRP conjugate in 2× TPB containing 2% BSA, and 50 μL of either water, standard (13 standards; AAMU or 1X, 2×10^−4 to 2×10^−8 M) or sample in duplicate. The microplate is gently shaken with an orbital shaker at room temperature for 3-4 hours. The wells are washed three times with 100 μL TPB containing 1% BSA and three times with water containing 0.05% Tween™ 20. To the washed plate is added 150 μL of a substrate buffer composed of citric acid (25 mM) and sodium phosphate dibasic buffer (50 mM, pH 5.0) containing 0.06% hydrogen peroxide and 0.04% o-phenylenediamine hydrochloride.
as §2, with “were” for “are”, “They were” for “The urine samples are”, “mL-^1” for “mL-1”, “was pipetted.” for “are added to each well.”, “μL” for “mL”
(§4) After the initial wash, unoccupied sites were blocked by incubation for 90 min. at room temperature with 100 μL TBP containing 3% BSA. The wells were washed four times with 100 μL TPB. This was followed by additions of […] of 12 mg mL^−1 AAMU-HRP or 1X-HRP conjugate in 2× TPB containing 2% BSA, and 50 μL of either water, standard (13 standards; AAMU or 1X, 2×10^−4 to 2×10^−8 M) or sample in duplicate. The microplate was gently shaken with an orbital shaker at room temperature for 3-4 hours. The wells were washed three times with 100 μL with TPB containing 1% BSA and three times with water containing 0.05% Tween™ 20. To the washed plate was added 150 μL of a substrate buffer composed of citric acid (25 mM) and sodium phosphate dibasic buffer (50 mM, pH 5.0) containing 0.06% hydrogen peroxide and 0.04% o-phenylenediamine hydrochloride. After 20 min. at room temperature with shaking, the reaction was stopped with 50 μL of 2.5 N HCl.
(§5) The cross reactivities of AAMU-Ab and 1X-Ab were tested using a wide variety of caffeine metabolites and structural analogs (Table 2 below).

AAMU-Ab = experiment: Competitive antigen ELISA, cross-reactivity of AAMU-Ab; type: binding, rabbit; conditions: 0 = absence of inhibition or inhibition no higher than 40% at highest concentration tested (5 × 10^−3 M)
Method: as §1, §2, §3
as §2, with “were” for “are”, “They were” for “The urine samples are”, “mL-^1” for “mL-1”, “was pipetted.” for “are added to each well.”, “μL” for “mL”
as §4, §5

impotent men = conditions: cited from earlier work
[1] = tested on: poor vs. extensive metabolizers; conditions: cited from earlier work
[2] = tested on: slow and fast acetylators; conditions: cited from earlier work
[3] = tested on: individuals prescribed sildenafil; conditions: postmarketing; cited from earlier work
[4] = intracavernosal, mixed populations

| SMILES | % Cross-Reaction IX-Ab (1X-Ab) | % Cross-Reaction AAMU-Ab (AAMU-Ab) | other results |
| --- | --- | --- | --- |
| Cn1c(=O)c2c(ncn2C)n(C)c1=O [1,3,7-Trimethyl Xanthine (Caffeine), 1,3,7-Trimethyl Xanthine] | 0% | 0% | – |
| Cn1c(=O)c2[nH]cnc2n(C)c1=O [1,3-Dimethyl Xanthine (Theophylline), 1,3-Dimethyl Xanthine] | 0.2% | 0% | – |
| Cn1c(=O)[nH]c2ncn(C)c2c1=O [1,7-Dimethyl Xanthine (Paraxanthine), 1,7-Dimethyl Xanthine] | 0.5% | 0% | – |
| Cn1c(=O)[nH]c2[nH]c(=O)n(C)c2c1=O [1,7-Dimethyluric acid] | 0% | 0% | – |
| Cn1c(=O)[nH]c2nc[nH]c2c1=O [1-Methyl Xanthine (1x), 1-Methyl Xanthine] | 100% | 0% | – |
| Cn1c(=O)[nH]c2[nH]c(=O)[nH]c2c1=O [1-Methyluric acid] | 11% | 0% | – |
| Cn1cnc2c1c(=O)[nH]c(=O)n2C [3,7-Dimethyl Xanthine (Theobromine), 3,7-Dimethyl Xanthine] | 0% | 0% | – |
| Cn1c(=O)[nH]c(=O)c2[nH]cnc21 [3-Methyl Xanthine] | 0% | 0% | – |
| CC(=O)Nc1c(N)n(C)c(=O)n(C)c1=O [5-Acetamino-6-amino-1,3-dimethyluracil] | 0% | 0% | – |
| CC(=O)Nc1c(N)n(C)c(=O)[nH]c1=O [5-Acetamino-6-amino-1-methyluracil] | 0% | 100% | – |
| CC(=O)Nc1c(N)[nH]c(=O)[nH]c1=O [5-Acetamino-6-amino-uracil] | 0% | 0.6% | – |
| Cn1cnc2[nH]c(=O)[nH]c(=O)c21 [7-Methyl Xanthine] | 0% | 0% | – |
| Cc1nc2[nH]c(=O)[nH]c(=O)c2[nH]1 [8-Methyl Xanthine] | 0% | 0% | – |
| CCCCC[C@H](O)/C=C/[C@H]1[C@H](O)CC(=O)[C@@H]1CCCCCCC(=O)O [Alprostadil, prostaglandin E1] | – | – | average duration of erection (impotent men; intracavernosal): 64 min; attempts in which erections were achieved (impotent men; [4]): 87%; men who achieved erections (impotent men; [4]): Ninety-four |
| COc1ccc2c(c1)[C@]13CCCC[C@@H]1[C@H](C2)N(C)CC3 [Dextromethorphan] | – | – | mean performance +/−SE ([1]; EMs (extensive metabolizers)): 95+/−0.5%; mean performance +/−SE ([1]; PMs (poor metabolizers)): 86+/−6% |
| Nc1nc2nc[nH]c2c(=O)[nH]1 [Guanine] | 0% | 0% | – |
| O=c1[nH]cnc2nc[nH]c12 [Hypoxanthine] | 0% | 0% | – |
| COc1ccc(Cc2nccc3cc(OC)c(OC)cc23)cc1OC [Papaverine] | – | – | penile fibrosis (impotent men; after 1 year of treatment): up to 60%; response rates (impotent men; alone or with phentolamine, mixed populations of impotent men): about 50%; average duration of erection (impotent men; intracavernosal): 50 min |
| O=c1cc[nH]c(=O)[nH]1 [Uracil] | 0% | 0% | – |
| O=c1[nH]c(=O)c2[nH]c(=O)[nH]c2[nH]1 [Uric acid] | 0% | 0% | – |
| O=c1[nH]c(=O)c2[nH]cnc2[nH]1 [Xanthine] | 0% | 0^a % | – |
| Nc1ccc(S(=O)(=O)c2ccc(N)cc2)cc1 [dapsone, Dapsone] | – | – | adverse reactions ([2]; fast acetylators): 17%; adverse reactions ([2]; slow acetylators): 46% |
| CCCc1nn(C)c2c(=O)[nH]c(-c3cc(S(=O)(=O)N4CCN(C)CC4)ccc3OCC)nc12 [sildenafil, Sildenafil] | – | – | deaths identified as having cardiovascular events [3]: Forty-six; deaths with definite or suspected myocardial infarction [3]: 21; individual deaths reported after prescription [3]: 123 |
